What is called IC50 is the concentration at which inhibition is half-maximal.

Consider 1 compound from patent US11141383B1, “Drug loaded flexible chitoplexes nanoparticles” (King Abdulaziz University, priority 2020, dated 2021).

The conditions of data set [1]: cited from earlier work.
In data set [2] the test system is human colorectal (HCT-116) cells. As to the kind of experiment: Cell viability and cytotoxicity assay (MTT). The class given is cell-based. To be noted: HCT-116, MTT. As for the experimental part: This test aimed to determine the effect of the prepared RSV lipid-based NPs formulations on intestinal cell viability and cytotoxicity. The potential effects of both formulations on human colorectal (HCT-116) cells were assessed by 3-(4,5-dimethylthiazol-2-yl)2,5-diphenyl tetrazolium bromide (MTT) assay. Cells were seeded on 96-well plates (1×10^4 cells/well) and incubated at 37° C. under a humidified atmosphere of 5% CO2 for 24 h. […] Each formulation was compared with a drug-free carrier as a negative control. After incubation, SFM in the control and test wells were replaced by 100 μL/well of MTT solution (0.5 mg/ml) in PBS and incubated at 37° C. for another 3 h. The MTT solution was removed and the purple formazan crystals formed at the bottom of the wells were dissolved using 100 μL DMSO/well with shaking for 2 h at room temperature. The intensity of the color obtained was measured at 549 nm using a microplate reader (ELX 800; Bio-Tek Instruments, Winooski, Vt., USA). Data, expressed as the percentage of viable cells, were compared to the survival of a control group. Values of the half maximal inhibitory concentration (IC50) were also estimated. Cells treated with DMSO only were defined as 100%
To examine the biocompatibility and cytotoxic effects of plain and drug loaded liposomal NPs or chitoplexes nano-formulation, HCT-116 cells were treated with different concentrations of these samples for 3 days and the MTT assay was performed to investigate the effect of these formulation on the viability of living cells. This test depends on the production of a colored formazan by the action of the viable cells' mitochondrial enzymes on MTT. Cells were exposed to increasing RSV concentrations of drug loaded liposomal NPs and chitoplexes nano-formulation standardized at certain RSV concentrations. Cells were also incubated with blank liposomal NPs and chitoplexes nano-formulation to exclude the effect of RSV. […]

Data set [3] in a line: In vitro release study (dialysis bag, phosphate buffer pH 7.4). The class given is physicochemical. As for the experimental part: The in vitro release of RSV from the prepared liposomal NPs, chitoplexes nano-formulation and pure drug suspension was studied. A quantity of each preparation containing 9 mg of drug was placed in a firmly sealed dialysis bag (Sigma-Aldrich Inc.) of a molecular weight cut-off 14 kDa. The dialysis bag was immersed in a glass bottle containing 400 mL phosphate buffer of pH 7.4. The bottles were kept in a shaking water bath (Model 1031; GFL Corporation, Burgwedel, Germany) at 37° C. and 100 rpm. The parameters of the in vitro release study were selected to achieve a sink condition. Aliquots of 2 mL were taken from the receptor compartment at predetermined time intervals with immediate replacement. The quantity of RSV in the withdrawn samples was determined spectrophotometrically at 242 nm. The experiment was done in triplicate for each formulation and mean values were calculated.

For data set [4] the following is noted: cited from earlier work. This is another data set of the same source.

Where two headings read alike, the source gives them in different places.

Consider `CC(C)c1nc(N(C)S(C)(=O)=O)nc(-c2ccc(F)cc2)c1/C=C/[C@@H](O)C[C@@H](O)CC(=O)O` [RSV pure, Rosuvastatin], for which, in data set [1], the water solubility result is reported as “low”. In data set [2] (after 24 h, read-out: IC50 (μM) after 24 h), the IC50 turned out to be 248 µM. Also, the IC50 in data set [2] (after 48 h, read-out: IC50 (μM) after 48 h) worked out at 237 µM. In addition, the IC50 in data set [2] (after 72 h, read-out: IC50 (μM) after 72 h) stood at 168 µM. Moreover, in data set [3] (dialysis bag 14 kDa, phosphate buffer pH 7.4, 37° C., 100 rpm, 24 h), the “drug release after 24 h” value stood at 37.28±2.86%. The drug release pattern entry in data set [3] (dialysis bag, phosphate buffer pH 7.4, FIG. 4) is recorded as “overall low drug release pattern”. Besides, in data set [4] (in vivo), the elimination half-life is ~19 h, the excreted in feces is 90% and the “time to maximum plasma concentration” value is 3 to 5 h. The “bound to plasma protein” value in data set [4] (mainly to serum albumin) is given as 88%. Further, in data set [4] (oral), the oral bioavailability is reported as ~20% and the “orally administered dose absorbed” value is listed as “about 25%”.
